Read-outs that look alike come from different tables or passages of the source.
Experiments:
Type in all cases: binding
[1] = target: T1, HeLa cell extract proteins (Homo sapiens, UniProt P63241)
T1 construct: endogenous in cells; host or cells: HeLa cell extract

[2] = target: T2, HeLa cell extract proteins (Homo sapiens, UniProt O95817)
T2 construct: endogenous in cells; host or cells: HeLa cell extract

[3] = target: T3, HeLa cell extract proteins (Homo sapiens, UniProt O14979)
T3 construct: endogenous in cells; host or cells: HeLa cell extract
T3 sequence (O14979 1-420): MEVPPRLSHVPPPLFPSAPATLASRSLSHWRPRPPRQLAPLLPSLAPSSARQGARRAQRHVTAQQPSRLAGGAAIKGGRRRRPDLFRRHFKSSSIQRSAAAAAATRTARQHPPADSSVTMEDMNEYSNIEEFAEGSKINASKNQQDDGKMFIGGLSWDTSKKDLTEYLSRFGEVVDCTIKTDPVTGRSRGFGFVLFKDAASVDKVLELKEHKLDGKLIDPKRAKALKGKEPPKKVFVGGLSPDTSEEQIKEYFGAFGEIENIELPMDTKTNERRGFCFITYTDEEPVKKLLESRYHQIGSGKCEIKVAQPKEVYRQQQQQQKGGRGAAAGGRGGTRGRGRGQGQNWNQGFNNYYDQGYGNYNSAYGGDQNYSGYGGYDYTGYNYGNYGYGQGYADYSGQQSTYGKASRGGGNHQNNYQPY

[4] = target: T4, HeLa cell extract proteins (Homo sapiens, UniProt O00231)
T4 construct: endogenous in cells; host or cells: HeLa cell extract

[5] = target: T5, HeLa cell extract proteins (Homo sapiens, UniProt O75323); details: protein GBAS; HeLa
T5 construct: endogenous in cells; host or cells: HeLa cell extract
T5 sequence (O75323 24-286): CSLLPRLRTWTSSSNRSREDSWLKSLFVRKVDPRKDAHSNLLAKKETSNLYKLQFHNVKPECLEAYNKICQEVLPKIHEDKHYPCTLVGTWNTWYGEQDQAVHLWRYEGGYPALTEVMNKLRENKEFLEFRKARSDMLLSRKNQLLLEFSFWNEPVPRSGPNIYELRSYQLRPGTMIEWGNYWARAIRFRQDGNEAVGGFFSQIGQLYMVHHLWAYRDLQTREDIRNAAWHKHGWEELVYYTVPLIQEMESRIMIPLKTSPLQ

[6] = target: T6, HeLa cell extract proteins (Homo sapiens, UniProt Q9Y5M8); details: captured protein SRPRB; HeLa
T6 construct: endogenous in cells; host or cells: HeLa cell extract
T6 sequence (Q9Y5M8 1-271): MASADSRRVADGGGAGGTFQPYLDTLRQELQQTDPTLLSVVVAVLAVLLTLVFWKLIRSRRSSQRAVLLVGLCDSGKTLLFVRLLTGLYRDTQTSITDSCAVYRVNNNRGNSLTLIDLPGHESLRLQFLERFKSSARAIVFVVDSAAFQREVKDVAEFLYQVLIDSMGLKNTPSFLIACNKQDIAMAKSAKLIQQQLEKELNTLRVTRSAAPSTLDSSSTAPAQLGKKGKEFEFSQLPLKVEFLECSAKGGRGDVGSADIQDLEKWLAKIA

[7] = target: T7, HeLa cell extract proteins (Homo sapiens, UniProt P50748); details: HeLa; protein KNTC1
T7 construct: endogenous in cells; host or cells: HeLa cell extract

[8] = target: T8, HeLa cell extract proteins (Homo sapiens, UniProt P43358); details: protein MAGEA4; HeLa
T8 construct: endogenous in cells; host or cells: HeLa cell extract
T8 sequence (P43358 1-317): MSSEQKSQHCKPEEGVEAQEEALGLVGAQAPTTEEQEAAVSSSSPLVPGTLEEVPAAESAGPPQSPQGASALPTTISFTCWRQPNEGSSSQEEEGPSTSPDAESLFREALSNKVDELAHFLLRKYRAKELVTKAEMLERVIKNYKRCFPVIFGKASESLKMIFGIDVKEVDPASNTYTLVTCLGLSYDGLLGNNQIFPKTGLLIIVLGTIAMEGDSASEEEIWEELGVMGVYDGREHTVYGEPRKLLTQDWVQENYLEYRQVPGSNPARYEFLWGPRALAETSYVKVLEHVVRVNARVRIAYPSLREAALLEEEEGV

[9] = target: T9, HeLa cell extract proteins (Homo sapiens, UniProt Q96RQ3); details: captured protein MCCC1; HeLa
T9 construct: endogenous in cells; host or cells: HeLa cell extract
T9 sequence (Q96RQ3 42-725): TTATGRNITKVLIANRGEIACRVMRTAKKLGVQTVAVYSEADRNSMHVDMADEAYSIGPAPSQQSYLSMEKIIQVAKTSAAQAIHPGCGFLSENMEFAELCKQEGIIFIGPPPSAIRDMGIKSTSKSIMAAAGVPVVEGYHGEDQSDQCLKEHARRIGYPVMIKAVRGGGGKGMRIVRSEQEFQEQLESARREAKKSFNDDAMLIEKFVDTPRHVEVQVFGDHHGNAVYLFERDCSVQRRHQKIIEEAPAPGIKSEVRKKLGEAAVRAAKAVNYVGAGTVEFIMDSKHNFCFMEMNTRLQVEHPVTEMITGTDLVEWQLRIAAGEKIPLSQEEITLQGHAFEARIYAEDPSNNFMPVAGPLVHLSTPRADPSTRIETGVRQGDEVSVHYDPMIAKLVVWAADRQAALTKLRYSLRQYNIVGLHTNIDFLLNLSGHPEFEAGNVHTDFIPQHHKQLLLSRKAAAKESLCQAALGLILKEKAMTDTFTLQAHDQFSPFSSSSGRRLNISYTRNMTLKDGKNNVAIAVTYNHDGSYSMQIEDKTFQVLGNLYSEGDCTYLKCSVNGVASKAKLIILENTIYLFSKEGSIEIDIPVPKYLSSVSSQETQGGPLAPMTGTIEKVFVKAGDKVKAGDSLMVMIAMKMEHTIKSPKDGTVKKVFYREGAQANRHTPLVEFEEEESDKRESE

[10] = target: T10, HeLa cell extract proteins (Homo sapiens, UniProt P39687); details: protein ANP32A; HeLa
T10 construct: endogenous in cells; host or cells: HeLa cell extract

[11] = target: T11, HeLa cell extract proteins (Homo sapiens, UniProt P82933); details: protein MRPS9; HeLa
T11 construct: endogenous in cells; host or cells: HeLa cell extract

T4 sequence (O00231 whole entry): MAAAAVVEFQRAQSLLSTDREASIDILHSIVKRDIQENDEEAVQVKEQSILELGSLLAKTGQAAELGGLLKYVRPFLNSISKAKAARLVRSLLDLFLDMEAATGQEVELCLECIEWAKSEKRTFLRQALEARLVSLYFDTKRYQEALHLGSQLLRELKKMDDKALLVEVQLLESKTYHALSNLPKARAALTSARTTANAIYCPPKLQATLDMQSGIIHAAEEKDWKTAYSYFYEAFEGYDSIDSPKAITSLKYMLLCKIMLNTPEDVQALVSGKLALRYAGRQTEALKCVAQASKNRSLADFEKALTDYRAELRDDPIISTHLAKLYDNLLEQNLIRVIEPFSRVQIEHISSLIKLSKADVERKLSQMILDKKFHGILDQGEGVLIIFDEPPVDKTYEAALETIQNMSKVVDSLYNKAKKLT
T1 sequence (P63241 whole entry): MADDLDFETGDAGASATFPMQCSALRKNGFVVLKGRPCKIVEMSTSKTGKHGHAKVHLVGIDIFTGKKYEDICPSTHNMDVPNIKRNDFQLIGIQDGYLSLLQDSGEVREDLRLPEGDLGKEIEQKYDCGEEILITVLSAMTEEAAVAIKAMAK
T10 sequence (P39687 whole entry): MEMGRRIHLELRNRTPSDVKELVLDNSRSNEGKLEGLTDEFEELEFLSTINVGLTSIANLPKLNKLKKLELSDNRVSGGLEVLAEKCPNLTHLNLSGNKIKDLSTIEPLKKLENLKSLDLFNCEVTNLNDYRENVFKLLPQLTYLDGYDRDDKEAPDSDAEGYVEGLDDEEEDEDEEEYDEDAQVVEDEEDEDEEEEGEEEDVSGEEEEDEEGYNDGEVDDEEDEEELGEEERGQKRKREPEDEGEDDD
T2 sequence (O95817 whole entry): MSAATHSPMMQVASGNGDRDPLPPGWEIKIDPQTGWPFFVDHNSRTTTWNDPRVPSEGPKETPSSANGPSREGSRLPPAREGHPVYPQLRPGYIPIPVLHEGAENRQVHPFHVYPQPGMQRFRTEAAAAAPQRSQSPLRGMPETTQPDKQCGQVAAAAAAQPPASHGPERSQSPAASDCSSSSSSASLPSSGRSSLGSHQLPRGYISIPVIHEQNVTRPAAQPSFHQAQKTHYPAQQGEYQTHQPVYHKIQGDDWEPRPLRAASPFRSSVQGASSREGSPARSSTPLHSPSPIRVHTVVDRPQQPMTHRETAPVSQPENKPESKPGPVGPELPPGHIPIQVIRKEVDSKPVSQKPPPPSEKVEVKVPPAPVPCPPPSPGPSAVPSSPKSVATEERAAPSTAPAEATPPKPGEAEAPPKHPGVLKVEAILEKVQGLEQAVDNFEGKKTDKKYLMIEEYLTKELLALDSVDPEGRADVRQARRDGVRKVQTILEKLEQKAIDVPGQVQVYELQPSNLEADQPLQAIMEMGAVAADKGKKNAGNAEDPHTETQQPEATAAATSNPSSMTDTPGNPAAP
T7 sequence (P50748 whole entry): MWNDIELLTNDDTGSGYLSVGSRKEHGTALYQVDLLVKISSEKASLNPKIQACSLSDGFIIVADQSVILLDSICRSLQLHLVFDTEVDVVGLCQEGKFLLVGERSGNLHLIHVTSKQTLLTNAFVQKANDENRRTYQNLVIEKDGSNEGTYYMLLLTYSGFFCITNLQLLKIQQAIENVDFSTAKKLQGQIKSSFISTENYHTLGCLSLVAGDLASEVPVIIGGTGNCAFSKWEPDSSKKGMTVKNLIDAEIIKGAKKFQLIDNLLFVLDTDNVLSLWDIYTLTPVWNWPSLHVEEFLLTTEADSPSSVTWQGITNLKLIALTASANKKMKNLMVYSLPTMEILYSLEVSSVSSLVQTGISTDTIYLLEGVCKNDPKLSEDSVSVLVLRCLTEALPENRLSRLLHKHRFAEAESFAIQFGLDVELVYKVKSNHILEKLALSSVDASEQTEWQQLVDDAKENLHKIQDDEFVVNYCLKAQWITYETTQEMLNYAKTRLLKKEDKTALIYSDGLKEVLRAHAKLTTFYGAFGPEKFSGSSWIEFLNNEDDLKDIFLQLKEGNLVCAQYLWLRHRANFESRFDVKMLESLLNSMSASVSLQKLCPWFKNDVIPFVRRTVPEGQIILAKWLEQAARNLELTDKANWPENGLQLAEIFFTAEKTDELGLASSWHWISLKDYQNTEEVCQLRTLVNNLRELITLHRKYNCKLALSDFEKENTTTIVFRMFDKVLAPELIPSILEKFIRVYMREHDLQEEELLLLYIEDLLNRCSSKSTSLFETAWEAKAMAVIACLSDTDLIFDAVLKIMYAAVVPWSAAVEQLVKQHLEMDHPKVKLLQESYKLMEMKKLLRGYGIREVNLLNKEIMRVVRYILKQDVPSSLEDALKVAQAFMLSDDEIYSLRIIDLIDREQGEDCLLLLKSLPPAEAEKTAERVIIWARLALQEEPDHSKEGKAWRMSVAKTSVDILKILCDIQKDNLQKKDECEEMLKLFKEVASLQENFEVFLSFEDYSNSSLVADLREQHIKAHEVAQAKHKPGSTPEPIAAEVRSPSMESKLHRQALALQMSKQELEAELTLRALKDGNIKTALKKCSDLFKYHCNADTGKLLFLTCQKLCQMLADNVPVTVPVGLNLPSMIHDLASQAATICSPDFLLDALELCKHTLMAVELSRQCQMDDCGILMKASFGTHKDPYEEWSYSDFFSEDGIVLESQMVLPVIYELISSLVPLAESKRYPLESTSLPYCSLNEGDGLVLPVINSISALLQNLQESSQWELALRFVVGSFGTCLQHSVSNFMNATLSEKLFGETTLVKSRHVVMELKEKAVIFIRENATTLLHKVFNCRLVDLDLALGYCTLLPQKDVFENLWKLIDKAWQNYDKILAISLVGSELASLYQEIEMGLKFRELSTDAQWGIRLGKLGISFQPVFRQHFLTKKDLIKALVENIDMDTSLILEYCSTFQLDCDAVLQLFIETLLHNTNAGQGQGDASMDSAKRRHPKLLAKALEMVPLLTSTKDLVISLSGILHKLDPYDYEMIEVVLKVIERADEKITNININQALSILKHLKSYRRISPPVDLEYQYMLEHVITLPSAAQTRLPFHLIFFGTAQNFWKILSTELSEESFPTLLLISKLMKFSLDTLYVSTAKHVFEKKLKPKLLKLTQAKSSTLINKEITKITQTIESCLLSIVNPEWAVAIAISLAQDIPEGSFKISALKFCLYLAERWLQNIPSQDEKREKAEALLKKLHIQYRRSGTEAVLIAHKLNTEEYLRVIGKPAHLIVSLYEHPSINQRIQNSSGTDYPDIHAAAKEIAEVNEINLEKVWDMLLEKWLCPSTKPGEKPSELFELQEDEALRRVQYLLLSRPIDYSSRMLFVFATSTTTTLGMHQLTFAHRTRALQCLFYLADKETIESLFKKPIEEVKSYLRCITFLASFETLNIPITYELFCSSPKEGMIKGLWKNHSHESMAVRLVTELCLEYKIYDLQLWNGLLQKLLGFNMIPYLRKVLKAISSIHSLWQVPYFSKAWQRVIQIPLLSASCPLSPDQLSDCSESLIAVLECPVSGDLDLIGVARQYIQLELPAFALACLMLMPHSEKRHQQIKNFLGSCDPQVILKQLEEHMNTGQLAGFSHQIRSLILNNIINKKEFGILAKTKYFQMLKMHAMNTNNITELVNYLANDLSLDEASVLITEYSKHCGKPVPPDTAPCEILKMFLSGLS

Compound	fold changes relative to vehicle control ([1]; HeLa, captured protein EIF5A)	fold changes relative to vehicle control ([2]; HeLa, protein BAG3)	fold changes relative to vehicle control ([3]; HeLa, captured protein HNRPDL)	fold changes relative to vehicle control ([4]; protein PSMD11, HeLa)	fold changes relative to vehicle control [1]	fold changes relative to vehicle control [2]	fold changes relative to vehicle control [3]	fold changes relative to vehicle control [4]	fold changes relative to vehicle control [5]	fold changes relative to vehicle control [6]	fold changes relative to vehicle control [7]	fold changes relative to vehicle control [8]	fold changes relative to vehicle control [9]	fold changes relative to vehicle control [10]	fold changes relative to vehicle control [11]
Nc1nc2c(c(=O)[nH]1)N(C=O)C(CNc1ccc(C(=O)N[C@@H](CCC(=O)O)C(=O)O)cc1)CN2 (stereo partly shown) [LEU, leucovorin]	1.12	0.91	1.09	1.03											
Nc1nc2[nH]cc(CCc3ccc(C(=O)N[C@@H](CCC(=O)O)C(=O)O)cc3)c2c(=O)[nH]1 [PTX, pemetrexed]					1.32	0.96	1.02	1.02							
CCCCCCOc1ccc(Cc2cnc(N)nc2N)cc1 [compound 1]									1.26	1.12	1.15	0.95	1.03	1.44	1.24
CCCCCCOc1cccc(Cc2cnc(N)nc2N)c1 [compound 2]									1.29	1.08	1.13	1.19	1.15	2.37	1.3
Nc1nc2cccc(-c3ccccc3)c2n1Cc1ccc(Cl)c(Cl)c1 [compound 3]									1.01	0.91	1.17	0.98	1.21	0.78	0.92
NCCOCCOCC(=O)Nc1nc2ncc(CNc3ccc(C(=O)NC(CCC(=O)O)C(=O)O)cc3)nc2c(=O)[nH]1 (stereo not shown) [compound 6]	1.61	1.17	1.06	1.11											
NCCCNc1ccc(C(=O)NC(CCC(=O)O)C(=O)O)cc1 (stereo not shown) [compound 7]	1.02	0.89	1.03	0.9											

Source: article PMC6199744, “Development of Chemical Proteomics for the Folateome and Analysis of the Kinetoplastid Folateome” (ACS Infectious Diseases, 2018)
